Results as given in ChEMBL document CHEMBL5518215, “Unlocking Antibacterial Potential: Key-Site-Based Regulation of Antibacterial Spectrum of Peptides” (J Med Chem, 2024).

Assays:
Pseudomonas aeruginosa [1] = assay: Antimicrobial activity against Pseudomonas aeruginosa 27853 assessed as bacterial killing measured after 16 hrs incubation; assay type: functional
Escherichia coli [2] = assay: Antimicrobial activity against Escherichia coli 25922 assessed as bacterial killing measured after 16 hrs incubation; assay type: functional
[3] = system: Staphylococcus epidermidis; assay: Antimicrobial activity against Staphylococcus epidermidis 12228 assessed as absence bacterial growth measured after 18 to 24 hrs incubation by NCCLS method; assay type: functional; settings: time 18-24 hrs
Listeria monocytogenes [4] = assay: Antimicrobial activity against Listeria monocytogenes 1.10753 assessed as absence bacterial growth measured after 18 to 24 hrs incubation by NCCLS method; assay type: functional; settings: time 18-24 hrs
Acinetobacter baumannii [5] = assay: Antimicrobial activity against Acinetobacter baumannii 1.6769 assessed as bacterial killing measured after 16 hrs incubation; assay type: functional
Staphylococcus aureus [6] = assay: Antimicrobial activity against Staphylococcus aureus 25923 assessed as bacterial killing measured after 16 hrs incubation; assay type: functional
[7] = Antimicrobial activity against Salmonella pullorum C7913 assessed as absence bacterial growth measured after 18 to 24 hrs incubation by NCCLS method; assay type: functional, Salmonella enterica subsp. enterica serovar Pullorum; settings: Salmonella enterica, time 18-24 hrs
Erythrocyte = assay: Hemolytic activity in human RBC at effective concentration measured after 1 hr by microplate reader analysis; assay type: toxicity, cell-based
Escherichia coli [8] = assay: Antimicrobial activity against Escherichia coli 25922 assessed as absence bacterial growth measured after 18 to 24 hrs incubation in presence of ZnCl2 by NCCLS method; assay type: functional; settings: time 18-24 hrs
[9] = Cytotoxicity against mouse RAW264.7 cells assessed as cell survival rate measured after 8 hrs by MTT assay; assay type: toxicity, cell-based
Escherichia coli [10] = assay: Antimicrobial activity against Escherichia coli 25922 assessed as absence bacterial growth measured after 18 to 24 hrs incubation in presence of FeCl3 by NCCLS method; assay type: functional; settings: time 18-24 hrs
Staphylococcus aureus [11] = assay: Antimicrobial activity against Staphylococcus aureus 29213 assessed as absence bacterial growth measured after 18 to 24 hrs incubation by NCCLS method; assay type: functional; settings: time 18-24 hrs
Escherichia coli [12] = assay: Antimicrobial activity against Escherichia coli 25922 assessed as absence bacterial growth measured after 18 to 24 hrs incubation in presence of NaCl by NCCLS method; assay type: functional; settings: time 18-24 hrs
Staphylococcus aureus [13] = assay: Antimicrobial activity against Staphylococcus aureus 29213 assessed as absence bacterial growth measured after 18 to 24 hrs incubation by NCCLS m; assay type: functional; settings: time 18-24 hrs
Escherichia coli [14] = assay: Antimicrobial activity against Escherichia coli K88 assessed as absence bacterial growth measured after 18 to 24 hrs incubation by NCCLS method; assay type: functional; settings: time 18-24 hrs
Staphylococcus aureus [15] = assay: Antimicrobial activity against Methicillin-resistant Staphylococcus aureus 43300 assessed as bacterial killing measured after 16 hrs incubation; assay type: functional
[16] = Antimicrobial activity against Salmonella pullorum C7913 assessed as bacterial killing measured after 16 hrs incubation; assay type: functional, Salmonella enterica subsp. enterica serovar Pullorum; settings: Salmonella enterica
Enterococcus faecalis [17] = assay: Antimicrobial activity against Enterococcus faecalis 29212 assessed as absence bacterial growth measured after 18 to 24 hrs incubation by NCCLS method; assay type: functional; settings: time 18-24 hrs
Escherichia coli [18] = assay: Antimicrobial activity against Escherichia coli 25922 assessed as absence bacterial growth measured after 18 to 24 hrs incubation in presence of 25% serum by NCCLS method; assay type: functional; settings: time 18-24 hrs
[19] = Hemolytic activity in human RBC at effective concentration at 128 uM measured after 1 hr by microplate reader relative to control; assay type: toxicity, cell-based, Erythrocyte; settings: human red blood cells (erythrocytes), read-out: Activity
Escherichia coli [20] = assay: Antimicrobial activity against Escherichia coli 25922 assessed as absence bacterial growth measured after 18 to 24 hrs incubation in presence of KCl by NCCLS method; assay type: functional; settings: time 18-24 hrs
Escherichia coli [21] = assay: Antimicrobial activity against Escherichia coli 25922 assessed as absence bacterial growth measured after 18 to 24 hrs incubation in presence of 12.5% serum by NCCLS method; assay type: functional; settings: time 18-24 hrs
Salmonella typhimurium [22] = assay: Antimicrobial activity against Salmonella typhimurium 14028 assessed as absence bacterial growth measured after 18 to 24 hrs incubation by NCCLS method; assay type: functional, Salmonella enterica subsp. enterica serovar Typhimurium; settings: Salmonella enterica, time 18-24 hrs
Pseudomonas aeruginosa [23] = assay: Antimicrobial activity against Pseudomonas aeruginosa 27853 assessed as absence bacterial growth measured after 18 to 24 hrs incubation by NCCLS method; assay type: functional; settings: time 18-24 hrs
Salmonella typhimurium [24] = assay: Antimicrobial activity against Salmonella typhimurium C7731 assessed as absence bacterial growth measured after 18 to 24 hrs incubation by NCCLS method; assay type: functional, Salmonella enterica subsp. enterica serovar Typhimurium; settings: Salmonella enterica, time 18-24 hrs
Escherichia coli [25] = assay: Antimicrobial activity against Escherichia coli 25922 assessed as absence bacterial growth measured after 18 to 24 hrs incubation in presence of NH4Cl by NCCLS method; assay type: functional; settings: time 18-24 hrs
Acinetobacter baumannii [26] = assay: Antimicrobial activity against Acinetobacter baumannii 1.6769 assessed as absence bacterial growth measured after 18 to 24 hrs incubation by NCCLS method; assay type: functional; settings: time 18-24 hrs
Escherichia coli [27] = assay: Antimicrobial activity against Escherichia coli 25922 assessed as absence bacterial growth measured after 18 to 24 hrs incubation in presence of 50% serum by NCCLS method; assay type: functional; settings: time 18-24 hrs
Escherichia coli [28] = assay: Antimicrobial activity against Escherichia coli 25922 assessed as absence bacterial growth measured after 18 to 24 hrs incubation by NCCLS method; assay type: functional; settings: time 18-24 hrs
Enterococcus faecalis [29] = assay: Antimicrobial activity against Enterococcus faecalis 29212 assessed as bacterial killing measured after 16 hrs incubation; assay type: functional
[30] = Cytotoxicity against human HEK-293T cells assessed as cell survival rate measured after 8 hrs by MTT assay; assay type: toxicity, cell-based
Bacillus cereus [31] = assay: Antimicrobial activity against Bacillus cereus 1.932 assessed as absence bacterial growth measured after 18 to 24 hrs incubation by NCCLS method; assay type: functional; settings: time 18-24 hrs
[32] = Cytotoxicity against porcine IPEC-J2 cells assessed as cell survival rate measured after 8 hrs by MTT assay; assay type: toxicity, cell-based, Sus scrofa; settings: pig
Listeria monocytogenes [33] = assay: Antimicrobial activity against Listeria monocytogenes 1.10753 assessed as bacterial killing measured after 16 hrs incubation; assay type: functional
Escherichia coli [34] = assay: Antimicrobial activity against Escherichia coli 25922 assessed as absence bacterial growth measured after 18 to 24 hrs incubation in presence of MgCl2 by NCCLS method; assay type: functional; settings: time 18-24 hrs
Staphylococcus aureus [35] = assay: Antimicrobial activity against Methicillin-resistant Staphylococcus aureus 43300 assessed as absence bacterial growth measured after 18 to 24 hrs incubation by NCCLS method; assay type: functional; settings: time 18-24 hrs
Salmonella typhimurium [36] = assay: Antimicrobial activity against Salmonella typhimurium 14028 assessed as bacterial killing measured after 16 hrs incubation; assay type: functional, Salmonella enterica subsp. enterica serovar Typhimurium; settings: Salmonella enterica
Bacillus cereus [37] = assay: Antimicrobial activity against Bacillus cereus 1.932 assessed as bacterial killing measured after 16 hrs incubation; assay type: functional
Salmonella typhimurium [38] = assay: Antimicrobial activity against Salmonella typhimurium C7731 assessed as bacterial killing measured after 16 hrs incubation; assay type: functional, Salmonella enterica subsp. enterica serovar Typhimurium; settings: Salmonella enterica
[39] = system: Staphylococcus epidermidis; assay: Antimicrobial activity against Staphylococcus epidermidis 12228 assessed as bacterial killing measured after 16 hrs incubation; assay type: functional
Staphylococcus aureus [40] = assay: Antimicrobial activity against Staphylococcus aureus 29213 assessed as bacterial killing measured after 16 hrs incubation; assay type: functional
Escherichia coli [41] = assay: Antimicrobial activity against Escherichia coli K88 assessed as bacterial killing measured after 16 hrs incubation; assay type: functional

H-AKLWLKGGKLWLKGGKLWLKG-NH2
> 128 µM: HC10 (Erythrocyte)
4 µM: MIC (Escherichia coli [8]) | MIC (Escherichia coli [10]) | MIC (Escherichia coli [20]) | MIC (Salmonella typhimurium [22]) | MIC (Escherichia coli [25]) | MIC (Escherichia coli [28])
16 µM: MBC (Acinetobacter baumannii [5]) | MIC (Salmonella typhimurium [24]) | MIC (Acinetobacter baumannii [26]) | MIC (Escherichia coli [34]) | MBC (Salmonella typhimurium [36])
1 µM: MIC (Escherichia coli [14]) | MBC (Escherichia coli [41])
2 µM: MIC [7] | MBC [16]
8 µM: MBC (Escherichia coli [2])
32 µM: MBC (Salmonella typhimurium [38])
> 64 µM: IC50 at 8 h [9] | IC50 at 8 h [30] | IC50 at 8 h [32]
> 32 µM: MBC (Pseudomonas aeruginosa [1]) | MIC [3] | MIC (Listeria monocytogenes [4]) | MBC (Staphylococcus aureus [6]) | MIC (Staphylococcus aureus [11]) | MIC (Escherichia coli [12]) | MIC (Staphylococcus aureus [13]) | MBC (Staphylococcus aureus [15]) | MIC (Enterococcus faecalis [17]) | MIC (Escherichia coli [18]) | MIC (Escherichia coli [21]) | MIC (Pseudomonas aeruginosa [23]) | MIC (Escherichia coli [27]) | MBC (Enterococcus faecalis [29]) | MIC (Bacillus cereus [31]) | MBC (Listeria monocytogenes [33]) | MIC (Staphylococcus aureus [35]) | MBC (Bacillus cereus [37]) | MBC [39] | MBC (Staphylococcus aureus [40])
< 10%: hemolysis at 1 h, 128 µM [19]

H-CKLWLKGGKLWLKGGKLWLKG-NH2
> 128 µM: HC10 (Erythrocyte)
60.1 µM: IC50 at 8 h [9]
> 64 µM: IC50 at 8 h [30]
14.3 µM: IC50 at 8 h [32]
> 32 µM: MBC (Pseudomonas aeruginosa [1]) | MBC (Escherichia coli [2]) | MIC [3] | MIC (Listeria monocytogenes [4]) | MBC (Acinetobacter baumannii [5]) | MBC (Staphylococcus aureus [6]) | MIC (Escherichia coli [8]) | MIC (Escherichia coli [10]) | MIC (Staphylococcus aureus [11]) | MIC (Escherichia coli [12]) | MIC (Staphylococcus aureus [13]) | MBC (Staphylococcus aureus [15]) | MIC (Enterococcus faecalis [17]) | MIC (Escherichia coli [18]) | MIC (Escherichia coli [20]) | MIC (Salmonella typhimurium [22]) | MIC (Pseudomonas aeruginosa [23]) | MIC (Salmonella typhimurium [24]) | MIC (Escherichia coli [25]) | MIC (Acinetobacter baumannii [26]) | MIC (Escherichia coli [27]) | MIC (Escherichia coli [28]) | MBC (Enterococcus faecalis [29]) | MIC (Bacillus cereus [31]) | MBC (Listeria monocytogenes [33]) | MIC (Escherichia coli [34]) | MIC (Staphylococcus aureus [35]) | MBC (Salmonella typhimurium [36]) | MBC (Bacillus cereus [37]) | MBC (Salmonella typhimurium [38]) | MBC [39] | MBC (Staphylococcus aureus [40])
2 µM: MIC [7] | MIC (Escherichia coli [14]) | MBC [16] | MBC (Escherichia coli [41])
32 µM: MIC (Escherichia coli [21])
< 10%: hemolysis at 1 h, 128 µM [19]

H-FKLWLKGGKLWLKGGKLWLKG-NH2
> 32 µM: MIC [3] | MIC (Listeria monocytogenes [4]) | MBC (Staphylococcus aureus [6]) | MIC (Staphylococcus aureus [11]) | MIC (Escherichia coli [12]) | MIC (Staphylococcus aureus [13]) | MBC (Staphylococcus aureus [15]) | MIC (Enterococcus faecalis [17]) | MIC (Escherichia coli [18]) | MIC (Salmonella typhimurium [24]) | MIC (Escherichia coli [27]) | MBC (Enterococcus faecalis [29]) | MIC (Bacillus cereus [31]) | MBC (Listeria monocytogenes [33]) | MIC (Escherichia coli [34]) | MBC (Bacillus cereus [37]) | MBC (Salmonella typhimurium [38]) | MBC [39]
32 µM: MBC (Pseudomonas aeruginosa [1]) | MIC (Pseudomonas aeruginosa [23]) | MBC (Staphylococcus aureus [40])
8 µM: MBC (Escherichia coli [2]) | MBC (Acinetobacter baumannii [5]) | MIC (Escherichia coli [8]) | MIC (Escherichia coli [20]) | MIC (Escherichia coli [25]) | MIC (Acinetobacter baumannii [26])
128 µM: HC10 (Erythrocyte)
> 64 µM: IC50 at 8 h [9] | IC50 at 8 h [30]
16 µM: MIC (Escherichia coli [21]) | MIC (Staphylococcus aureus [35]) | MBC (Salmonella typhimurium [36])
20 µM: IC50 at 8 h [32]
2 µM: MIC [7] | MIC (Escherichia coli [10]) | MBC [16]
< 10%: hemolysis at 1 h, 128 µM [19]
4 µM: MIC (Salmonella typhimurium [22]) | MIC (Escherichia coli [28])
1 µM: MIC (Escherichia coli [14]) | MBC (Escherichia coli [41])

H-IKLWLKGGKLWLKGGKLWLKG-NH2
> 64 µM: IC50 at 8 h [9] | IC50 at 8 h [30]
2 µM: MIC [7] | MIC (Escherichia coli [14]) | MBC [16] | MBC (Escherichia coli [41])
4 µM: MIC (Escherichia coli [20]) | MIC (Escherichia coli [28])
< 10%: hemolysis at 1 h, 128 µM [19]
> 32 µM: MIC [3] | MIC (Listeria monocytogenes [4]) | MBC (Staphylococcus aureus [6]) | MIC (Staphylococcus aureus [11]) | MIC (Escherichia coli [12]) | MIC (Staphylococcus aureus [13]) | MBC (Staphylococcus aureus [15]) | MIC (Enterococcus faecalis [17]) | MIC (Escherichia coli [18]) | MIC (Escherichia coli [21]) | MIC (Escherichia coli [27]) | MBC (Enterococcus faecalis [29]) | MIC (Bacillus cereus [31]) | MBC (Listeria monocytogenes [33]) | MIC (Escherichia coli [34]) | MIC (Staphylococcus aureus [35]) | MBC (Bacillus cereus [37]) | MBC [39] | MBC (Staphylococcus aureus [40])
> 128 µM: HC10 (Erythrocyte)
16 µM: MIC (Escherichia coli [8]) | MIC (Escherichia coli [10])
8 µM: MBC (Pseudomonas aeruginosa [1]) | MBC (Escherichia coli [2]) | MBC (Acinetobacter baumannii [5]) | MIC (Salmonella typhimurium [22]) | MIC (Pseudomonas aeruginosa [23]) | MIC (Salmonella typhimurium [24]) | MIC (Escherichia coli [25]) | MIC (Acinetobacter baumannii [26]) | MBC (Salmonella typhimurium [36])
31.4 µM: IC50 at 8 h [32]
32 µM: MBC (Salmonella typhimurium [38])
